Calls of active or inactive are those of the source.
Experiments:
Format in all cases: functional, cell-based
[1] = molecular target: T1, Bromodomain-containing protein 7 (Homo sapiens, UniProt Q9NPI1); assay: Degradation of BRD7 in RI-1 cells (8 h) (Western Blot degradation assay)
T1 sequence (Q9NPI1 whole entry): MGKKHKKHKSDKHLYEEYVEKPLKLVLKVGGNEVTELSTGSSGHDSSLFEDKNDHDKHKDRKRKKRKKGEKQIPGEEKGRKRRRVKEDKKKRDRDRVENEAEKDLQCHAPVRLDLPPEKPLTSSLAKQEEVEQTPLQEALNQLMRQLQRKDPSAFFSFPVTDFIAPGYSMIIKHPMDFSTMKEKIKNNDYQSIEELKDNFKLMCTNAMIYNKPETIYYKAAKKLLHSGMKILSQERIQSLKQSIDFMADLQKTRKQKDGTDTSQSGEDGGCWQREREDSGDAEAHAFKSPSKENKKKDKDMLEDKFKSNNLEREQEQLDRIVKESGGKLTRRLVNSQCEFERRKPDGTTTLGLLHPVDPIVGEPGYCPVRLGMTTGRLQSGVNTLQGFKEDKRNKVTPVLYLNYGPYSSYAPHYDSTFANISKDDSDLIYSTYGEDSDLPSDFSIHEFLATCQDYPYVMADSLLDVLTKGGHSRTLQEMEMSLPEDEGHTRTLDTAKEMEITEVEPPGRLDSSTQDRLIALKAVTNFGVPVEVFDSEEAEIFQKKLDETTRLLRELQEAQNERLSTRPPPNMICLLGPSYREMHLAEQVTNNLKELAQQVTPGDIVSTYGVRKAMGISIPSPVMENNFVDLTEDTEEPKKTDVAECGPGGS

EOL1 = assay: Cell viability (EOL-1 cells) (CellTiterGlo); details: Homo sapiens
A204 = assay: Cell viability (A204 cells) (CellTiterGlo); details: Homo sapiens

COc1cc(-c2cn(C)c(=O)c3cnccc23)cc(OC)c1CN1CCN(CCCCCOc2cc(-c3scnc3C)ccc2CNC(=O)[C@@H]2C[C@@H](O)CN2C(=O)[C@@H](NC(=O)C2(F)CC2)C(C)(C)C)CC1
active: DC50 [1] 4.5 nM | EC50 (EOL1) 3.4 nM | EC50 (A204) 39.8 nM

Source: ChEMBL document CHEMBL5463724, “Data for DCP probe VZ185” (2023)
